{"source": "patent US7897154B2", "about": "“Dermal drops” (ABR, LLC, priority 2006, dated 2011)", "origin": "cited, not measured here", "key": {"[1]": {"test_system": "H. ras transformed rat2 cells"}, "[2]": {"conditions": "animal models of non-insulin-dependent diabetes"}, "[3]": {"test_system": "pre-adipocyte"}}, "data": [{"substance": "dehydrotrametenolic acid [DHTA]", "values": [{"measurement": "apoptosis", "setting": "[1]", "value": "induce apoptosis"}, {"measurement": "growth", "setting": "[1]", "value": "inhibit the growth of H. ras"}, {"measurement": "sensitization to insulin", "setting": "[2]", "value": "sensitize animal models of non-insulin-dependent diabetes to insulin"}, {"measurement": "pre-adipocyte differentiation", "setting": "[3]", "value": "induce pre-adipocyte differentiation"}]}]}
